In PubChem BioAssay AID2060897 (Molecular Pharmacology Branch, DTP, NCI, 2025):

Tested on: 966289-007-R4-J1-PDC complex spheroid viability
Assay: Anticancer human tumor 966289-007-R4-J1-PDC patient-derived pancreatic adenocarcinoma cell line growth inhibition [RAS]
Settings: for viability, T/C: stronger effect = lower value
From the text: RAS pathway inhibitors in Combinations in Complex Spheroids
A high-throughput screen of multi-cell type tumor spheroids was designed to identify active combinations of RAS pathway inhibitors and targeted small molecules. Complex spheroids include a stromal component modeled by human endothelial cells (HUVEC) and fibroblasts modeled by human mesenchymal stem cells (MSCs). The concentration ranges selected for each drug and investigational agent were based upon clinically achievable concentrations if the clinical Cmax of the agent was known.
Compounds. The drugs and investigational agents: abemaciclib (NSC768073), cobimetinib (NSC768068), divarasib (GDC6063, NSC841802), docetaxel (NSC628503), GDC-1971 (RLY-1971, NSC841576), gemcitabine (NSC613327), inavolisib (NSC800729), ipatasertib (NSC767898), KB-0742 (NSC834161), MRTX-1133 (NSC836407), osimertinib (NSC779217), RMC-4630 (NSC839698), RMC-6236 (NSC851965), RMC-6291 (NSC852671), Ro-3306 (NSC812927), sapanisertib (NSC764658), SN-38 (NSC673596), staurosporine (NSC755774), SY5609 (NSC837396), and tovorafenib (DAY101, NSC766906), were obtained from the National Cancer Institute (NCI) Developmental Therapeutics Program Chemical Repository. The FDA-approved anticancer drug set is available from the NCI Developmental Therapeutics Program. […] The stock solutions were prepared in dimethyl sulfoxide (DMSO, Sigma-Aldrich, St. Louis, MO, cat. D2650) at 800-fold the tested concentration and stored at -70 degrees C prior to their use. All drugs and investigational agents were tested over a range starting from a high concentration at or near the clinical Cmax and decreasing in half-log increments. If the clinical Cmax for an agent had not been determined, the highest concentration tested was 10 microM.
Cell Culture. All cells were maintained in an incubator at 37 degrees C and 5% CO2 with 95% humidity. The PDC lines were cultured according to standard operating procedures established by the NCI PDMR. All PDCs were thawed and cultured in Matrigel-coated flasks prepared with a working solution of 1X Ham's F-12 nutrient mix, without supplementation (Invitrogen, Waltham, MA, cat. 11765054), 100 U/mL penicillin-streptomycin (Invitrogen, cat. 15140122), and 2.5% Matrigel (Corning Inc., Corning, NY, cat. 354248) for the first three passages. The 362531-283-R-J2-PDC and 782815-120-R-J1-PDC lines were cultured in 6C/Colon 1B media, which includes advanced DMEM/F-12 (Thermo Fisher Scientific, cat. 12634028), 10 mM HEPES (Thermo Fisher Scientific, cat. 15630080), 1X GlutaMAX supplement (Thermo Fisher Scientific, cat. 35050061), 0.1 mg/mL primocin (InvivoGen, San Diego, CA, cat. ant-pm-2), 10% defined fetal bovine serum, heat inactivated (HyClone Laboratories Inc., Logan, UT, cat. SH30070.03HI), 50% L-WRN conditioned media (ATCC, cat. CRL-3276), 1.25 mM N-Acetyl-L-cysteine (Sigma-Aldrich, cat. A9165), 10 mM nicotinamide (Sigma-Aldrich, cat. N0636), 1X B-27 supplement (Thermo Fisher Scientific, cat. 17504044), 1X N-2 supplement (Thermo Fisher Scientific, cat. 17502048), 50 ng/mL human EGF (Thermo Fisher Scientific, cat. PHG0311), and 10 microM Y-27632 dihydrochloride (Tocris Bioscience, cat. 1254). The K12877-001-R-J1-PDC line was cultured in 6I media, which includes all 6C/Colon 1B media plus 10 ng/mL human FGF-10 (PeproTech, cat. 100-26), 1 ng/mL human FGF-2 (PeproTech, cat. 100-18B), 1 µM prostaglandin E2 (Tocris Bioscience, cat. 2296), […] hydrocortisone (Sigma-Aldrich, cat. H4001), and […] bovine insulin (Sigma-Aldrich, cat. I6634). The K86415-001-R-J1-PDC line was cultured in 6D media, which includes all 6C/Colon 1B media components minus the L-WRN conditioned media. The 485176-168-R4-J1-PDC was cultured in PANC media, which includes all 6C/Colon 1B media plus 100 ng/mL human FGF-10 (PeproTech, cat. 100-26), 500 nM SB-431542 (Selleckchem, cat. S1067), and 10 nM gastrin (Tocris Bioscience, cat. 3006). […]

[1] = curve of first compound, second compound 0.0316 µM
[2] = curve of first compound, second compound 0.1 µM
[3] = curve of first compound, second compound 0.316 µM
[4] = curve of first compound, second compound 1 µM
[5] = second compound 0.0316 µM, first compound 0.0316 µM
[6] = second compound 0.0316 µM, first compound 0.1 µM
[7] = second compound 0.1 µM, first compound 0.0316 µM
[8] = second compound 0.1 µM, first compound 0.1 µM
[9] = second compound 0.316 µM, first compound 0.0316 µM
[10] = second compound 0.316 µM, first compound 0.1 µM
[11] = second compound 1 µM, first compound 0.0316 µM
[12] = second compound 1 µM, first compound 0.1 µM
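Further: spheroids exposed to agents for one week before readout.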
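Wherever viability, T/C is given: percent viability relative to DMSO vehicle control wells as 100%.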

CC(C)n1nc(-c2ccc3oc(N)nc3c2)c2c(N)ncnc21 + C#Cc1c(F)ccc2cc(O)cc(-c3ncc4c(N5CC6CCC(C5)N6)nc(OCC56CCCN5CC(F)C6)nc4c3F)c12
IC50 [1]: 46.5 nM | IC50 [2]: 49.9 nM | IC50 [3]: 38.8 nM | IC50 [4]: 42.6 nM | IC50 (curve of first compound, second compound 3.16 µM): 41.5 nM | IC50 (curve of first compound, second compound 10 µM): 23.3 nM | viability, T/C (second compound 0.0316 µM, first compound 0.000316 µM): 99.2% | viability, T/C (second compound 0.0316 µM, first compound 0.001 µM): 96.8% | viability, T/C (second compound 0.0316 µM, first compound 0.00316 µM): 91.8% | viability, T/C (second compound 0.0316 µM, first compound 0.01 µM): 106% | viability, T/C [5]: 61.8% | viability, T/C [6]: 26.6% | viability, T/C (second compound 0.1 µM, first compound 0.000316 µM): 104% | viability, T/C (second compound 0.1 µM, first compound 0.001 µM): 99.4% | viability, T/C (second compound 0.1 µM, first compound 0.00316 µM): 104% | viability, T/C (second compound 0.1 µM, first compound 0.01 µM): 110% | viability, T/C [7]: 67% | viability, T/C [8]: 24.1% | viability, T/C (second compound 0.316 µM, first compound 0.000316 µM): 111% | viability, T/C (second compound 0.316 µM, first compound 0.001 µM): 103% | viability, T/C (second compound 0.316 µM, first compound 0.00316 µM): 114% | viability, T/C (second compound 0.316 µM, first compound 0.01 µM): 109% | viability, T/C [9]: 56.3% | viability, T/C [10]: 21% | viability, T/C (second compound 1 µM, first compound 0.000316 µM): 108% | viability, T/C (second compound 1 µM, first compound 0.001 µM): 118% | viability, T/C (second compound 1 µM, first compound 0.00316 µM): 119% | viability, T/C (second compound 1 µM, first compound 0.01 µM): 126% | viability, T/C [11]: 59.7% | viability, T/C [12]: 22% | viability, T/C (second compound 3.16 µM, first compound 0.000316 µM): 108% | viability, T/C (second compound 3.16 µM, first compound 0.001 µM): 113% | viability, T/C (second compound 3.16 µM, first compound 0.00316 µM): 125% | viability, T/C (second compound 3.16 µM, first compound 0.01 µM): 105% | viability, T/C (second compound 3.16 µM, first compound 0.0316 µM): 58.7% | viability, T/C (second compound 3.16 µM, first compound 0.1 µM): 22.4% | viability, T/C (second compound 10 µM, first compound 0.000316 µM): 97.4% | viability, T/C (second compound 10 µM, first compound 0.001 µM): 94.1% | viability, T/C (second compound 10 µM, first compound 0.00316 µM): 126% | viability, T/C (second compound 10 µM, first compound 0.01 µM): 96.8% | viability, T/C (second compound 10 µM, first compound 0.0316 µM): 33.2% | viability, T/C (second compound 10 µM, first compound 0.1 µM): 17%

C[C@@H](NC(=O)c1ncnc(N)c1Cl)c1ncc(C(=O)Nc2cc(C(F)(F)F)c(Cl)cn2)s1 + C=CC(=O)N1CCN(c2nc(OCC3CCCN3C)nc3c(F)c(-c4nc(N)cc(C)c4C(F)(F)F)c(Cl)cc23)C(C)C1
IC50 (curve of first compound, second compound 0.00316 µM): > 10000 nM | IC50 (curve of first compound, second compound 0.01 µM): > 10000 nM | IC50 [1]: > 10000 nM | IC50 [2]: > 10000 nM | IC50 [3]: > 10000 nM | IC50 [4]: > 10000 nM | viability, T/C (second compound 0.00316 µM, first compound 0.0316 µM): 123% | viability, T/C (second compound 0.00316 µM, first compound 0.1 µM): 117% | viability, T/C (second compound 0.00316 µM, first compound 0.316 µM): 115% | viability, T/C (second compound 0.00316 µM, first compound 1 µM): 119% | viability, T/C (second compound 0.00316 µM, first compound 3.16 µM): 128% | viability, T/C (second compound 0.00316 µM, first compound 10 µM): 76.2% | viability, T/C (second compound 0.01 µM, first compound 0.0316 µM): 112% | viability, T/C (second compound 0.01 µM, first compound 0.1 µM): 116% | viability, T/C (second compound 0.01 µM, first compound 0.316 µM): 122% | viability, T/C (second compound 0.01 µM, first compound 1 µM): 109% | viability, T/C (second compound 0.01 µM, first compound 3.16 µM): 119% | viability, T/C (second compound 0.01 µM, first compound 10 µM): 100% | viability, T/C [5]: 120% | viability, T/C [6]: 113% | viability, T/C (second compound 0.0316 µM, first compound 0.316 µM): 118% | viability, T/C (second compound 0.0316 µM, first compound 1 µM): 128% | viability, T/C (second compound 0.0316 µM, first compound 3.16 µM): 127% | viability, T/C (second compound 0.0316 µM, first compound 10 µM): 86.2% | viability, T/C [7]: 116% | viability, T/C [8]: 119% | viability, T/C (second compound 0.1 µM, first compound 0.316 µM): 123% | viability, T/C (second compound 0.1 µM, first compound 1 µM): 123% | viability, T/C (second compound 0.1 µM, first compound 3.16 µM): 116% | viability, T/C (second compound 0.1 µM, first compound 10 µM): 111% | viability, T/C [9]: 115% | viability, T/C [10]: 107% | viability, T/C (second compound 0.316 µM, first compound 0.316 µM): 130% | viability, T/C (second compound 0.316 µM, first compound 1 µM): 125% | viability, T/C (second compound 0.316 µM, first compound 3.16 µM): 116% | viability, T/C (second compound 0.316 µM, first compound 10 µM): 118% | viability, T/C [11]: 101% | viability, T/C [12]: 103% | viability, T/C (second compound 1 µM, first compound 0.316 µM): 120% | viability, T/C (second compound 1 µM, first compound 1 µM): 128% | viability, T/C (second compound 1 µM, first compound 3.16 µM): 134% | viability, T/C (second compound 1 µM, first compound 10 µM): 94.1%

CC(=O)OC12COC1CC(O)C1(C)C(=O)C(O)C3=C(C)C(OC(=O)C(O)C(NC(=O)OC(C)(C)C)c4ccccc4)CC(O)(C(OC(=O)c4ccccc4)C21)C3(C)C (configuration not stated)
viability, T/C (compound 0.0316 µM): 7.82% [middle of 4 runs] | viability, T/C (compound 0.1 µM): 14.1% [middle of 4 runs] | viability, T/C (compound 0.316 µM): 15.4% [middle of 4 runs] | viability, T/C (compound 1 µM): 19.7% [middle of 4 runs] | viability, T/C (compound 3.16 µM): 38.3% [middle of 4 runs] | viability, T/C (compound 10 µM): 67% [middle of 4 runs] | IC50 (curve of compound): < 31.6 nM

CC(C)NCC(C(=O)N1CCN(c2ncnc3c2C(C)CC3O)CC1)c1ccc(Cl)cc1 (configuration not stated)
viability, T/C (compound 0.0316 µM): 105% [middle of 4 runs] | viability, T/C (compound 0.316 µM): 115% [middle of 4 runs] | viability, T/C (compound 1 µM): 105% [middle of 4 runs] | viability, T/C (compound 3.16 µM): 64% [middle of 4 runs] | viability, T/C (compound 10 µM): 34.2% [middle of 4 runs] | IC50 (curve of compound): 5.43 µM [middle of 4 runs]
